Earlier results as cited in US5700484A, “Sustained release microparticulate caffeine formulation” (Nestec S.A., priority 1996, dated 1997).

Details: 350 mg caffeine oral, aqueous solution

SMILES: Cn1c(=O)c2c(ncn2C)n(C)c1=O [caffeine, 1,3,7-trimethyl xanthine]
- maximum plasma level: approximately 8.3 μg/ml
